Data on 20 compounds can be found in PubChem BioAssay AID330 (DTP/NCI, 2004).

Where “and” joins values, the source holds several entries; their conditions need not be identical. Identical values can stand only once. Inconclusive results and toxic doses are left out.

The test deals with P388 leukemia ip, CD2F1 mice, survival T/C. The test is described as follows: NCI In Vivo Anticancer Drug Screen. Data for tumor model P388 Leukemia (intraperitoneal) in CD2F1 (CDF1) mice. The following applies: endpoint: median survival time, higher = longer survival. In short, it runs like this:
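Mice carrying the transplanted tumor received test compound or vehicle. Survival was recorded in each group, and the value is the treated-group measurement divided by that of the vehicle-treated control group.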

[1] abbreviates: dose: 100.0 mg/kg/injection, schedule: Q04DX002 (ip), vehicle: saline with Tween-80.
Setting [2] is: dose: 50.0 mg/kg/injection, schedule: Q01DX005 (ip), vehicle: saline with Tween-80.
Setting [3] is: dose: 100.0 mg/kg/injection, schedule: Q01DX005 (ip), vehicle: saline with Tween-80.
Where [4] appears, read: dose: 200.0 mg/kg/injection, schedule: Q01DX005 (ip), vehicle: saline with Tween-80.
The mark [5] stands for this setting: dose: 12.5 mg/kg/injection, schedule: Q01DX009 (ip), vehicle: saline with Tween-80.
Setting [6] is: dose: 25.0 mg/kg/injection, schedule: Q01DX009 (ip), vehicle: saline with Tween-80.
Setting [7] is: dose: 50.0 mg/kg/injection, schedule: Q01DX009 (ip), vehicle: saline with Tween-80.

In the case of `COC(=O)Nc1nc2c(OC)c(OC)c(OC)cc2[nH]1`, the T/C was 97 % of control (dose: 12.5 mg/kg/injection, schedule: Q01DX005 (ip), vehicle: other); 100 % of control (dose: 25.0 mg/kg/injection, schedule: Q01DX005 (ip), vehicle: other); 100 % of control (dose: 50.0 mg/kg/injection, schedule: Q01DX005 (ip), vehicle: other); 102 % of control (dose: 100.0 mg/kg/injection, schedule: Q01DX005 (ip), vehicle: other).
`Nc1ncnc2c1CCc1ccccc1-2`: the T/C under setting [1] was 107 % of control and the T/C (dose: 200.0 mg/kg/injection, schedule: Q04DX002 (ip), vehicle: saline with Tween-80) was 112 % of control.
Consider `O=C(CCCO)c1nc2ccccc2s1`, for which the T/C is 106 % of control (dose: 60.0 mg/kg/injection, schedule: Q01DX005 (ip), vehicle: Klucel (hydroxypropylcellulose) (HPC)); 101 % of control (dose: 120.0 mg/kg/injection, schedule: Q01DX005 (ip), vehicle: Klucel (hydroxypropylcellulose) (HPC)); 100 % of control (dose: 240.0 mg/kg/injection, schedule: Q01DX005 (ip), vehicle: Klucel (hydroxypropylcellulose) (HPC)).
Take `CC(C)N1CC(=O)N2CSCC2C1=O` (centres undefined): the T/C is, setting by setting: (dose: 60.0 mg/kg/injection, schedule: Q01DX005 (ip), vehicle: saline) 105 % of control; (dose: 120.0 mg/kg/injection, schedule: Q01DX005 (ip), vehicle: saline) 105 % of control; (dose: 240.0 mg/kg/injection, schedule: Q01DX005 (ip), vehicle: saline) 105 % of control.
`COc1ccc2c(C)c(N=C=S)c(=O)oc2c1`: the T/C reads like this: (dose: 50.0 mg/kg/injection, schedule: Q04DX003 (ip), vehicle: suspension in saline) 100 % of control; (dose: 100.0 mg/kg/injection, schedule: Q04DX003 (ip), vehicle: suspension in saline) 100 % of control; (dose: 200.0 mg/kg/injection, schedule: Q04DX003 (ip), vehicle: suspension in saline) 106 % of control.
With `c1ccc2c(c1)C1=NCCN1c1ccccc1-2`, the T/C is 109 % of control (dose: 12.0 mg/kg/injection, schedule: Q01DX009 (ip), vehicle: saline with Tween-80); 88 % of control (dose: 12.0 mg/kg/injection, schedule: Q01DX009 (ip), vehicle: saline); 113 % of control (dose: 18.0 mg/kg/injection, schedule: Q01DX009 (ip), vehicle: saline with Tween-80); 105 % of control (dose: 18.0 mg/kg/injection, schedule: Q01DX009 (ip), vehicle: saline); 118 % of control (dose: 27.0 mg/kg/injection, schedule: Q01DX009 (ip), vehicle: saline with Tween-80); 111 % of control (dose: 27.0 mg/kg/injection, schedule: Q01DX009 (ip), vehicle: saline). Further, the T/C (dose: 40.0 mg/kg/injection, schedule: Q01DX009 (ip), vehicle: saline with Tween-80) was 122 % of control.
Take `CC(=O)Cc1nc2ccccc2s1`: the T/C is 104 % of control (dose: 25.0 mg/kg/injection, schedule: Q04DX002 (ip), vehicle: saline with Tween-80); 107 % of control (dose: 50.0 mg/kg/injection, schedule: Q04DX002 (ip), vehicle: saline with Tween-80); 102 % of control under setting [1].
On to `[Co+3].[NH-]CC[NH-].[NH-]CC[NH-].[NH-]CC[SH2+].[O-][Cl+3]([O-])([O-])O`, for which the T/C reads like this: (dose: 100.0 mg/kg/injection, schedule: Q04DX003 (ip), vehicle: saline) 100 % of control; (dose: 200.0 mg/kg/injection, schedule: Q04DX003 (ip), vehicle: saline) 100 % of control; (dose: 400.0 mg/kg/injection, schedule: Q04DX003 (ip), vehicle: saline) 102 % of control; (dose: 800.0 mg/kg/injection, schedule: Q04DX003 (ip), vehicle: saline) 99 % of control.
Consider `CC(C)(C)NC1/C(=C\c2ccccc2)C(=O)c2ccccc2C1(C)C` (centres undefined), for which the T/C (dose: 25.0 mg/kg/injection, schedule: Q01DX009 (ip), vehicle: other) is 109 % of control; the T/C (dose: 50.0 mg/kg/injection, schedule: Q01DX009 (ip), vehicle: other) is 101 % of control; the T/C (dose: 100.0 mg/kg/injection, schedule: Q01DX009 (ip), vehicle: other) was 110 % of control; the T/C (dose: 200.0 mg/kg/injection, schedule: Q01DX009 (ip), vehicle: other) was 124 % of control.
Take `CNc1ccc(N=Nc2ccncc2C)cc1C`: the T/C reads like this: (dose: 6.25 mg/kg/injection, schedule: Q01DX009 (ip), vehicle: DMSO) 89 % of control; (dose: 12.5 mg/kg/injection, schedule: Q01DX009 (ip), vehicle: DMSO) 88 % of control; (dose: 25.0 mg/kg/injection, schedule: Q01DX009 (ip), vehicle: DMSO) 87 % of control.
Take `O=C(Nc1ccc(NC(=O)c2ccncc2)cc1)c1ccncc1`: the T/C was 97 % of control under setting [2], 93 % of control under setting [3] and 97 % of control under setting [4].
Take `CC1CC(c2ccccc2Cl)C(c2ccccc2)C(=O)O1` (centres undefined): the T/C was 100 % of control (dose: 100.0 mg/kg/injection, schedule: Q04DX003 (ip), vehicle: Klucel (hydroxypropylcellulose) (HPC)); 106 % of control (dose: 200.0 mg/kg/injection, schedule: Q04DX003 (ip), vehicle: Klucel (hydroxypropylcellulose) (HPC)); 108 % of control (dose: 400.0 mg/kg/injection, schedule: Q04DX003 (ip), vehicle: Klucel (hydroxypropylcellulose) (HPC)).
In the case of `CC(=O)NC1=C(N2CC2)C(=O)C(NC(C)=O)=C(N2CC2)C1=O`, the T/C by setting is: (dose: 125.0 micrograms/kg/injection, schedule: Q01DX010 (ip), vehicle: saline) 115 % of control; (dose: 500.0 micrograms/kg/injection, schedule: Q01DX010 (ip), vehicle: saline) 215 % of control; (dose: 1000.0 micrograms/kg/injection, schedule: Q01DX010 (ip), vehicle: saline) 255 % of control.
`COc1cc2c(cc1OC)-c1c3c(cc4c1[C@@H](C2)N(C)CC4)OCO3`: the T/C was 107 % of control (dose: 12.5 mg/kg/injection, schedule: Q01DX009 (ip), vehicle: distilled water + Tween-80); 106 % of control under setting [5]; 107 % of control (dose: 25.0 mg/kg/injection, schedule: Q01DX009 (ip), vehicle: distilled water + Tween-80); 100 % of control under setting [6]; 116 % of control (dose: 50.0 mg/kg/injection, schedule: Q01DX009 (ip), vehicle: distilled water + Tween-80); 102 % of control under setting [7].
Regarding `COc1cc2oc3ccccc3c(=O)c2cc1CSc1ccccc1N`, the T/C by setting is: under setting [5], 89 % of control and 96 % of control; under setting [6], 93 % of control and 98 % of control; under setting [7], 92 % of control and 96 % of control; (dose: 100.0 mg/kg/injection, schedule: Q01DX009 (ip), vehicle: saline with Tween-80) 87 % of control and 89 % of control.
For `Nc1nc(C[P+](c2ccccc2)(c2ccccc2)c2ccccc2)c(CCCCc2ccccc2)c(=O)[nH]1`, the T/C reads like this: (dose: 12.5 mg/kg/injection, schedule: Q01DX005 (ip), vehicle: Klucel (hydroxypropylcellulose) (HPC)) 101 % of control; (dose: 25.0 mg/kg/injection, schedule: Q01DX005 (ip), vehicle: Klucel (hydroxypropylcellulose) (HPC)) 101 % of control; (dose: 50.0 mg/kg/injection, schedule: Q01DX005 (ip), vehicle: Klucel (hydroxypropylcellulose) (HPC)) 98 % of control and 99 % of control.
Take `CC1=NCc2c(nnn2C)N1`: the T/C runs as follows: (dose: 100.0 mg/kg/injection, schedule: Q01DX001 (ip), vehicle: Klucel (hydroxypropylcellulose) (HPC)) 104 % of control; (dose: 200.0 mg/kg/injection, schedule: Q01DX001 (ip), vehicle: Klucel (hydroxypropylcellulose) (HPC)) 101 % of control.
With `CCCCCCC(=O)/C=C/c1cc(Cl)cc(Cl)c1`, the T/C is, setting by setting: under setting [2], 95 % of control; under setting [3], 91 % of control; under setting [4], 92 % of control.
On to `O/N=C(/c1ccccc1)n1nnc2ccccc21`, for which the T/C was 118 % of control (dose: 60.0 mg/kg/injection, schedule: Q01DX005 (ip), vehicle: saline with Tween-80); 106 % of control (dose: 120.0 mg/kg/injection, schedule: Q01DX005 (ip), vehicle: saline with Tween-80); 105 % of control (dose: 240.0 mg/kg/injection, schedule: Q01DX005 (ip), vehicle: saline with Tween-80).
On to `CCOC(=O)C1=NN(C)C(=O)C1`, for which the T/C runs as follows: (dose: 100.0 mg/kg/injection, schedule: Q01DX001 (ip), vehicle: saline with Tween-80) 99 % of control; (dose: 200.0 mg/kg/injection, schedule: Q01DX001 (ip), vehicle: saline with Tween-80) 115 % of control; (dose: 400.0 mg/kg/injection, schedule: Q01DX001 (ip), vehicle: saline with Tween-80) 104 % of control.
